Experimental data taken from patent USH1942H, “Herbicidal 3-(pyrazolylphenyl)propanoic acids and derivatives” (FMC Corporation, priority 1998, dated 2001).

Assays:
Soybean [1] = assay: pre-emergence herbicidal activity, soybean; assay type: in vivo, Glycine max var. Winchester; details: preemergence, 1.0 kg/ha
From the text: (§1) The test plants included soybean (Glycine max var. Winchester), field corn (Zea mays var. Pioneer 3732), wheat (Triticum aestivum var. Lew), morning glory (Ipomea lacunosa or Ipomea hederacea), velvetleaf (Abutilon theophrasti), green foxtail (Setaria viridis), Johnsongrass (Sorghum halepense), blackgrass (Aloepecurus myosuroides), common chickweed (Stellaria media), and common cocklebur (Xanthium strumarium L.).
(§2) For pre-emergence testing, two disposable fiber flats (8 cm×15 cm×25 cm) for each rate of application of each candidate herbicide were filled to an approximate depth of 6.5 cm with steam-sterilized sandy loam soil. The soil was leveled and impressed with a template to provide five evenly spaced furrows 13 cm long and 0.5 cm deep in each flat. Seeds of soybean, wheat, corn, green foxtail, and johnsongrass were planted in the furrows of the first flat, and seeds of velvetleaf, morningglory, common chickweed, cocklebur, and blackgrass were planted in the furrows of the second flat. […]
(§3) The pre-emergence flats were initially subjected to a light water spray. […] After 12-17 days, the plants were examined, and the phytotoxicity data were recorded. […]
(§4) Phytotoxicity data are taken as percent control. Percent control is determined by a method similar to the 0 to 100 rating system disclosed in "Research Methods in Weed Science," 2nd ed., B. Truelove, Ed. […]

Wheat [2] = assay: pre-emergence herbicidal activity, wheat; assay type: in vivo, Triticum aestivum var. Lew; details: preemergence, 1.0 kg/ha
From the text: as §1, §2, §3, §4

Corn [3] = assay: pre-emergence herbicidal activity, corn; assay type: in vivo, Zea mays var. Pioneer 3732; details: preemergence, 1.0 kg/ha
From the text: as §1, §2, §3, §4

Velvetleaf = assay: pre-emergence herbicidal activity, velvetleaf; assay type: in vivo, Abutilon theophrasti; details: preemergence, 1.0 kg/ha
From the text: as §1, §2, §3, §4

Morningglory = assay: pre-emergence herbicidal activity, morningglory; assay type: in vivo, Ipomea lacunosa or Ipomea hederacea; details: preemergence, 1.0 kg/ha
From the text: as §1, §2, §3, §4

Chickweed [4] = assay: pre-emergence herbicidal activity, chickweed; assay type: in vivo, Stellaria media; details: preemergence, 1.0 kg/ha
From the text: as §1, §2, §3, §4

Cocklebur [5] = assay: pre-emergence herbicidal activity, cocklebur; assay type: in vivo, Xanthium strumarium L.; details: preemergence, 1.0 kg/ha
From the text: as §1, §2, §3, §4

Blackgrass [6] = assay: pre-emergence herbicidal activity, blackgrass; assay type: in vivo, Aloepecurus myosuroides; details: preemergence, 1.0 kg/ha
From the text: as §1, §2, §3, §4

Green foxtail [7] = assay: pre-emergence herbicidal activity, green foxtail; assay type: in vivo, Setaria viridis; details: preemergence, 1.0 kg/ha
From the text: as §1, §2, §3, §4

Johnsongrass [8] = assay: pre-emergence herbicidal activity, johnsongrass; assay type: in vivo, Sorghum halepense; details: preemergence, 1.0 kg/ha
From the text: as §1, §2, §3, §4

Soybean [9] = assay: post-emergence herbicidal activity, soybean; assay type: in vivo, Glycine max var. Winchester; details: postemergence, 1.0 kg/ha
Wheat [10] = assay: post-emergence herbicidal activity, wheat; assay type: in vivo, Triticum aestivum var. Lew; details: postemergence, 1.0 kg/ha
Corn [11] = assay: post-emergence herbicidal activity, corn; assay type: in vivo, Zea mays var. Pioneer 3732; details: postemergence, 1.0 kg/ha
Chickweed [12] = assay: post-emergence herbicidal activity, chickweed; assay type: in vivo, Stellaria media; details: postemergence, 1.0 kg/ha
Cocklebur [13] = assay: post-emergence herbicidal activity, cocklebur; assay type: in vivo, Xanthium strumarium L.; details: postemergence, 1.0 kg/ha
Blackgrass [14] = assay: post-emergence herbicidal activity, blackgrass; assay type: in vivo, Aloepecurus myosuroides; details: postemergence, 1.0 kg/ha
Green foxtail [15] = assay: post-emergence herbicidal activity, green foxtail; assay type: in vivo, Setaria viridis; details: postemergence, 1.0 kg/ha
Johnsongrass [16] = assay: post-emergence herbicidal activity, johnsongrass; assay type: in vivo, Sorghum halepense; details: postemergence, 1.0 kg/ha

| Structure (SMILES) | % CONTROL (Soybean [1]) [%] | % CONTROL (Wheat [2]) [%] | % CONTROL (Corn [3]) [%] | % CONTROL (Velvetleaf) [%] | % CONTROL (Morningglory) [%] | % CONTROL (Chickweed [4]) [%] | % CONTROL (Cocklebur [5]) [%] | % CONTROL (Blackgrass [6]) [%] | % CONTROL (Green foxtail [7]) [%] | % CONTROL (Johnsongrass [8]) [%] | % CONTROL (Soybean [9]) [%] | % CONTROL (Wheat [10]) [%] | % CONTROL (Corn [11]) [%] | % CONTROL (Chickweed [12]) [%] | % CONTROL (Cocklebur [13]) [%] | % CONTROL (Blackgrass [14]) [%] | % CONTROL (Green foxtail [15]) [%] | % CONTROL (Johnsongrass [16]) [%] |
| --- | --- | --- | --- | --- | --- | --- | --- | --- | --- | --- | --- | --- | --- | --- | --- | --- | --- | --- |
| CCOC(=O)C(Cl)Cc1cc(-c2nn(C)c(OC(F)F)c2Cl)c(Cl)cc1Cl (stereo not drawn) [Compound 1] | 100 | 20 | 40 | 100 | 100 | 100 | 100 | 40 | 100 | 80 | 100 | 30 | 60 | 100 | 100 | 40 | 100 | 100 |
| CCOC(=O)C(Cl)Cc1cc(-c2nn(C)c(OC(F)F)c2Cl)c(F)cc1Cl (stereo not drawn) [Compound 2, Ethyl 2-chloro-3-[2-chloro-4-fluoro-5-(4-chloro-5-difluoromethoxy-1-methylpyrazol-3-yl)phenyl]propanoate] | 90 | 30 | 10 | 100 | 100 | 100 | 100 | 50 | 100 | 70 | 100 | 55 | 90 | 100 | 100 | 60 | 100 | 90 |
